The values that follow come from PubChem BioAssay AID1794824.

Each structure is given as a SMILES string.

Usually EC50 stands for the concentration that produces a half-maximal response.

The target in the experiment is Sodium- and chloride-dependent taurine transporter (Homo sapiens) (UniProt P31641). Nature of the experiment: taurine transporter SLC6A6 activation, membrane depolarization – cell-based, membrane potential dye, HEK-293, SLC6A6 overexpression, dose response (AID 1794824). The following applies: HEK-293 SLC6A6 OE, FLIPR membrane potential dye.
Sodium- and chloride-dependent taurine transporter (Homo sapiens), sequence (P31641 whole entry, looked up): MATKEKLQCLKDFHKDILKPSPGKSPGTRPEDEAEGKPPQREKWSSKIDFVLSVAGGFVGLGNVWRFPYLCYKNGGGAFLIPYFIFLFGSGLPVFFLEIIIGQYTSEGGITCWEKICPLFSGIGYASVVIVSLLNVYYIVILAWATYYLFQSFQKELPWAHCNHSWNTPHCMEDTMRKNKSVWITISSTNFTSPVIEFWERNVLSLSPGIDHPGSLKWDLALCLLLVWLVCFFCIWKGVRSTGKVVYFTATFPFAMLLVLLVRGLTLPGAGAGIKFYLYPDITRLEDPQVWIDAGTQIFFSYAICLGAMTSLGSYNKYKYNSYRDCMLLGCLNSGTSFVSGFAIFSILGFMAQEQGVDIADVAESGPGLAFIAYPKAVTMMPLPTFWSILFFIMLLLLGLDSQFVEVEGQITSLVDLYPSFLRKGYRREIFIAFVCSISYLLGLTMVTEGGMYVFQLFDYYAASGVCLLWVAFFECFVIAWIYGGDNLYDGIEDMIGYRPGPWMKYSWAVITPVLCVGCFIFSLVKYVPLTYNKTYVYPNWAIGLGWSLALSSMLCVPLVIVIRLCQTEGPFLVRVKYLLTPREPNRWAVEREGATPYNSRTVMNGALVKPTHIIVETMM

For the compound `NCCCC(=O)O`, the half-maximal effective concentration (EC50) was 354 µM. With `NCCS(=O)(=O)O` the figure was 10 µM.
